The text below walks through data of patent US10865216B2, “Tricyclic Gyrase inhibitors” (MERCK SHARP & DOHME CORP., priority 2012, dated 2020).

One assay deals with E. coli ATCC 25922. The assay is described as follows: MIC, E. coli ATCC 25922. The following applies: for MIC: Escherichia coli; for MIC Ec: E. coli. In kind it is cell-based.
For another assay, the system named is S. aureus ATCC 13709. The experiment in a line: MIC, S. aureus ATCC 13709. It is filed as cell-based. Particulars: for MIC: Staphylococcus aureus; for MIC Sa: S. aureus.
The mark [1] stands for this setting: ATCC25922, Table 16, new R4 substituents, EC8 not defined, read-out: EC8 MIC.
Where [2] appears, read: ATCC13709, Table 16, new R4 substituents, read-out: SA MIC.
[3] abbreviates: Alamar Blue read after overnight incubation at 35° C.
The mark [4] stands for this setting: ATCC25922, E. coli, Alamar Blue read after overnight incubation at 35° C., read-out: MIC Ec.
Where [5] appears, read: ATCC13709, S. aureus, Alamar Blue read after overnight incubation at 35° C., read-out: MIC Sa.

≈ marks a conversion by molar mass, not a printed value. Like-named read-outs stand apart in the source and are kept apart here. Where only a bound is given, the exact number is not on record here.

Turning to `CNc1cc(F)cc2c1[nH]c1nc(Oc3cnc(C)nc3)nc(N3CCC(N)(CN)C3)c12` (stereo not drawn), the MIC is 16 µg/mL (≈ 36.6 µM) with E. coli ATCC 25922 (setting [1]) and at most 0.5 µg/mL in the assay on S. aureus ATCC 13709 (setting [2]).

`CNc1cc(F)cc2c1[nH]c1nc(Oc3cnc(C)nc3)nc(N3CCC(N)(C(F)(F)F)C3)c12` (stereo not drawn): the MIC is 1 µg/mL (≈ 2.1 µM) in the assay with E. coli ATCC 25922 (setting [1]) and at most 0.5 µg/mL in the assay on S. aureus ATCC 13709 (setting [2]).

On to `CCC1(CN)CCN(c2nc(Oc3cnc(C)nc3)nc3[nH]c4c(NC)cc(F)cc4c23)C1` (stereo not drawn), for which the MIC with E. coli ATCC 25922 (setting [1]) and in the assay with S. aureus ATCC 13709 (setting [2]) was at most 0.5 µg/mL throughout.

For `CNc1cc(F)cc2c1[nH]c1nc(Oc3cnc(C)nc3)nc(N3CCC(C)(CN)C3)c12` (stereo not drawn), the minimal inhibitory concentration (MIC) in the assay on E. coli ATCC 25922 (setting [1]) and in the assay on S. aureus ATCC 13709 (setting [2]) was at most 0.5 µg/mL each time.

Take `CNc1cc(F)cc2c1[nH]c1nc(Oc3cnc(C)nc3)nc(N3CC[C@@H](CN)C3)c12`: the minimum inhibitory concentration (MIC) in the assay on E. coli ATCC 25922 (setting [1]) and in the assay with S. aureus ATCC 13709 (setting [2]) was at most 0.5 µg/mL each time.

As to `CNc1cc(F)cc2c1[nH]c1nc(Oc3cnc(C)nc3)nc(N3CC[C@H](CN)C3)c12`, the MIC with E. coli ATCC 25922 (setting [1]) and in the assay on S. aureus ATCC 13709 (setting [2]) was at most 0.5 µg/mL each time.

With `CNc1cc(F)cc2c1[nH]c1nc(Oc3cnc(C)nc3)nc(NCCN)c12`, the MIC was found to be 16 µg/mL (≈ 41.8 µM) with E. coli ATCC 25922 (setting [1]) and 4 µg/mL (≈ 10.5 µM) with S. aureus ATCC 13709 (setting [2]).

`CNc1cc(F)cc2c1[nH]c1nc(Oc3cnc(C)nc3)nc(N3CCC[C@H]3CN)c12`: the MIC in the assay on E. coli ATCC 25922 (setting [1]) is 2 µg/mL (≈ 4.73 µM); in the assay with S. aureus ATCC 13709 (setting [2]), 1 µg/mL (≈ 2.37 µM).

Regarding `CNc1cc(F)cc2c1[nH]c1nc(Oc3cnc(C)nc3)nc(C3=CCNC3)c12`, the MIC is 8 µg/mL (≈ 20.4 µM) in the assay on E. coli ATCC 25922 (setting [1]) and at most 0.5 µg/mL in the assay with S. aureus ATCC 13709 (setting [2]).

With `CNc1cc(F)cc2c1[nH]c1nc(Oc3cnc(C)nc3)nc(N3CC(N)C(C(=O)O)C3)c12` (stereo not drawn), the MIC in the assay with E. coli ATCC 25922 (setting [1]) and in the assay with S. aureus ATCC 13709 (setting [2]) was above 16 µg/mL throughout.

With `NC1CN(c2nc(Sc3cnc4ccc[n+]([O-])c4c3)nc3[nH]c4c(NC5CC5)cc(F)cc4c23)CC12CC2` (stereo not drawn) [Compound 1.02], the “MIC Ec” value against E. coli ATCC 25922 (setting [3]) is above 64 µg/mL. Besides, in the assay on S. aureus ATCC 13709 (setting [3]), the “MIC Sa” value stood at 32 µg/mL (≈ 60.5 µM).

With `NC1C2CN(c3nc(Sc4cnc5ccc[n+]([O-])c5c4)nc4[nH]c5c(Cl)cccc5c34)CC12` (stereo not drawn) [Compound 1.03], the “MIC Ec” value against E. coli ATCC 25922 (setting [3]) was above 64 µg/mL. Further, in the assay with S. aureus ATCC 13709 (setting [3]), the “MIC Sa” value was determined as 32 µg/mL (≈ 67.2 µM).

On to `N[C@@H]1CCN(c2nc(Sc3cnc4ccc[n+]([O-])c4c3)nc3[nH]c4c(Cl)cccc4c23)C1` [Compound 1.04], for which the “MIC Ec” value against E. coli ATCC 25922 (setting [3]) came out at 64 µg/mL (≈ 138 µM). The “MIC Sa” value in the assay on S. aureus ATCC 13709 (setting [3]) came out at 32 µg/mL (≈ 69 µM).

For the compound `NC1CN(c2nc(Sc3cnc4nccnc4c3)nc3[nH]c4ccccc4c23)C1` [Compound 1.05], the “MIC Ec” value in the assay on E. coli ATCC 25922 (setting [3]) is above 64 µg/mL. For the same compound, the “MIC Sa” value against S. aureus ATCC 13709 (setting [3]) is above 64 µg/mL.

Take `NC1CCN(c2nc(Sc3cnc4nccnc4c3)nc3[nH]c4ccccc4c23)C1` (stereo not drawn) [Compound 1.06]: in the assay on E. coli ATCC 25922 (setting [3]), the “MIC Ec” value was above 64 µg/mL. Moreover, in the assay on S. aureus ATCC 13709 (setting [3]), the “MIC Sa” value came out at 32 µg/mL (≈ 77.2 µM).

On to `Cc1cccc2c1[nH]c1nc(Sc3cnc4nccnc4c3)nc(N3CC4C(N)C4C3)c12` (stereo not drawn) [Compound 1.07], for which, in the assay on E. coli ATCC 25922 (setting [3]), the “MIC Ec” value was above 32 µg/mL. The “MIC Sa” value against S. aureus ATCC 13709 (setting [3]) stood at 4 µg/mL (≈ 9.08 µM).

Regarding `Nc1cccc2c1[nH]c1nc(Sc3cnc4ccc[n+]([O-])c4c3)nc(N3CC4C(N)C4C3)c12` (stereo not drawn) [Compound 1.08], the “MIC Ec” value in the assay with E. coli ATCC 25922 (setting [3]) is above 64 µg/mL. Further, the “MIC Sa” value in the assay with S. aureus ATCC 13709 (setting [3]) came to 64 µg/mL (≈ 140 µM).

Take `Nc1cccc2c1[nH]c1nc(Sc3cnc4cccnc4c3)nc(N3CC4C(N)C4C3)c12` (stereo not drawn) [Compound 1.09]: in the assay with E. coli ATCC 25922 (setting [3]), the “MIC Ec” value is above 64 µg/mL. The “MIC Sa” value against S. aureus ATCC 13709 (setting [3]) came to 64 µg/mL (≈ 145 µM).

As to `CCNc1cccc2c1[nH]c1nc(Sc3cnc4ccc[n+]([O-])c4c3)nc(N3CC4C(N)C4C3)c12` (stereo not drawn) [Compound 1.10], the MIC in the assay with E. coli ATCC 25922 (setting [4]) was 4 µg/mL (≈ 8.25 µM); with S. aureus ATCC 13709 (setting [5]), at most 0.5 µg/mL.

`CCNc1cccc2c1[nH]c1nc(Sc3cnc4cccnc4c3)nc(N3CC4C(N)C4C3)c12` (stereo not drawn) [Compound 1.11]: the MIC is 8 µg/mL (≈ 17.1 µM) in the assay with E. coli ATCC 25922 (setting [4]) and at most 0.5 µg/mL in the assay with S. aureus ATCC 13709 (setting [5]).

Regarding `CNc1cccc2c1[nH]c1nc(Sc3cnc4cccnc4c3)nc(N3CC4C(N)C4C3)c12` (stereo not drawn) [Compound 1.12], the minimum inhibitory concentration (MIC) was 1 µg/mL (≈ 2.2 µM) in the assay on E. coli ATCC 25922 (setting [4]) and at most 0.5 µg/mL with S. aureus ATCC 13709 (setting [5]).

`CNc1cccc2c1[nH]c1nc(Sc3cnc4ccc[n+]([O-])c4c3)nc(N3CC4C(N)C4C3)c12` (stereo not drawn) [Compound 1.13]: in the assay with E. coli ATCC 25922 (setting [4]), the MIC is at most 0.5 µg/mL. In addition, the “MIC Sa” value in the assay with S. aureus ATCC 13709 (setting [3]) is at most 0.5 µg/mL.

As for `CNc1cccc2c1[nH]c1nc(Sc3cnc4ccc[n+]([O-])c4c3)nc(N3CC[C@H](N)C3)c12` [Compound 1.14], the values for the MIC with E. coli ATCC 25922 (setting [4]) and in the assay on S. aureus ATCC 13709 (setting [5]) were 1 µg/mL (≈ 2.18 µM) and at most 0.5 µg/mL, respectively.

As for `CNc1cccc2c1[nH]c1nc(Sc3cnc4nccnc4c3)nc(N3CC[C@H](N)C3)c12` [Compound 1.15], the MIC was determined as 2 µg/mL (≈ 4.51 µM) with E. coli ATCC 25922 (setting [4]) and 1 µg/mL (≈ 2.25 µM) in the assay on S. aureus ATCC 13709 (setting [5]).

`CNc1cccc2c1[nH]c1nc(Sc3cnc4nccnc4c3)nc(N3CC4C(N)C4C3)c12` (stereo not drawn) [Compound 1.16]: the minimal inhibitory concentration (MIC) in the assay on E. coli ATCC 25922 (setting [4]) is 1 µg/mL (≈ 2.2 µM); in the assay on S. aureus ATCC 13709 (setting [5]) it was at most 0.5 µg/mL.

Consider `CNc1cccc2c1[nH]c1nc(Sc3cnc4ccc[n+]([O-])c4c3)nc(N3CC(O)C3)c12` [Compound 1.17], for which the MIC in the assay on E. coli ATCC 25922 (setting [4]) is above 64 µg/mL; in the assay on S. aureus ATCC 13709 (setting [5]), at most 0.5 µg/mL.

As to `CNc1cccc2c1[nH]c1nc(Sc3cnc4ccc[n+]([O-])c4c3)nc(N3C[C@@H]4[C@@H](CN)[C@@H]4C3)c12` [Compound 1.18], the MIC in the assay on E. coli ATCC 25922 (setting [4]) was 2 µg/mL (≈ 4.13 µM); in the assay with S. aureus ATCC 13709 (setting [5]) it was at most 0.5 µg/mL.
